The source of these data is US20060234987A1, “Neuroprotective benzo 1 3 oxathiol 2 ones” (priority 2003, published 2006).

Structures are written as SMILES. pIC50: −log10 of the molar value.

One assay deals with SCG neurons. The experiment in a line: Protection of SCG neurons from anti-NGF killing. The conditions noted are these: Rattus norvegicus, Neuron, 48 h, read-out: IC50, rescue from anti-NGF killing of cultured SCG neurons. Type of assay: cell-based, Sprague Dawley rats. As for the experimental part:
Neurotrophins are critical to the growth, development, and survival of small fiber neurons of the PNS. SCG neurons are neurons of the PNS that undergo apoptosis upon NGF withdrawal. In a typical experiment SCG neurons are cultured in the presence of NGF, which induces survival and neurite out-growth. After 5 days the NGF is removed by either the addition of anti-NGF polyclonal antibody (Sigma) or by repeated washings (4 times) with NGF free media, resulting in the apoptosis of up to 90% of the neurons after 48 hours, as measured by MTS staining. The addition of selected compounds of Formula I to the final cellular media provides upwards of 100% protection, at drug concentrations ranging from 10 to 50 μM (see Example 62).
Protection of SCG neurons from anti-NGF killing. SCG neurons were isolated from day 1 neonatal Sprague Dawley rats, plated at a cell density of 5,000 cells/well, and incubated in Biowhittaker Ultraculture containing 1% Penstrep, 1% L-glutamine, 0.7% ARAC, 3% rat serum, and NGF (50 ng/mL, Calomone Labs), at 37° C., under a 5% CO2 atmosphere. After 4 days the cells were treated with anti-NGF antibody (Sigma). At this time compound was added and the cells were maintained serum and NGF free for 48 hours, at which time viability of the neurons was assessed using Alamar Blue (Medicorp) staining. Table 3 summarizes selected IC50 values from compounds tested using this protocol.
Regarding `Cc1cc(OC(=O)NC2CCCCC2)cc2sc(=O)oc12` [Compound 31, 5-(N-Cyclohexylcarbamoyloxy)-7-methylbenzo[1,3]oxathiol-2-one], the negative-log IC50 (pIC50) – broadly, the IC50 on a negative log10 scale, so that one unit is a factor of ten – is 4.46.

Consider `COc1ccc(NC(=O)Oc2cc(Sc3ccc4ccccc4c3)c3oc(=O)sc3c2)cc1` [Compound 26, 5-(N-(4-methoxyphenyl)carbamoyloxy)-7-((2-naphthyl)sulfanyl)benzo[1,3]oxathiol-2-one], for which the pIC50 was 4.80.

Take `O=c1oc2c(-c3ccc(Cl)cc3Cl)cc(O)cc2s1` [Compound 41, 7-(2,4-dichlorophenyl)-5-hydroxybenzo[1,3]oxathiol-2-one]: the pIC50 is 5.15.

In the case of `O=c1oc2c(-c3ccc(Br)cc3)cc(O)cc2s1` [Compound 44, 7-(4-bromophenyl)-5-hydroxybenzo[1,3]oxathiol-2-one], the pIC50 is 4.70.

Staying with this assay, now noted: Rattus norvegicus, Neuron; anti-NGF antibody, 48 hours, Alamar Blue viability; read-out: IC50, rescue from anti-NGF killing of cultured SCG neurons.
Regarding `O=c1oc2c(Sc3ccccc3)cc(O)c(Sc3ccc4ccccc4c3)c2s1` [Compound 29, 5-hydroxy-4-(2-naphthylthio)-7-((phenyl)sulfanyl)benzo[1,3]oxathiol-2-one], the pIC50 is less than 4.52.

Regarding `CC(C)(C)c1ccc(Sc2cc(O)cc3sc(=O)oc23)cc1` [Compound 17, 7-((4-tert-Butylphenyl)sulfanyl)-5-hydroxybenzo[1,3]oxathiol-2-one], the negative logarithm of the IC50 (pIC50) was 4.60.

On to `O=c1oc2c(-c3cccc(Cl)c3)cc(O)cc2s1` [Compound 37, 7-(3-chlorophenyl)-5-hydroxybenzo[1,3]oxathiol-2-one], for which the negative logarithm of the IC50 (pIC50) was less than 4.52.

In the case of `O=c1oc2c(Sc3cccc4ccccc34)cc(O)cc2s1` [Compound 22, 5-Hydroxy-7-((1-naphthyl)sulfanyl)benzo[1,3]oxathiol-2-one], the negative logarithm of the IC50 (pIC50) was less than 4.52.

In the case of `O=C(Oc1cc(-c2ccccc2)c2oc(=O)sc2c1)c1sc2ccccc2c1Cl` [Compound 33, 5-(3-chlorobenzothiophen-2-ylcarbonyloxy)-7-phenylbenzo[1,3]oxathiol-2-one], the pIC50 was less than 4.52.

For the compound `Cc1cccc(C)c1Sc1cc(O)cc2sc(=O)oc12` [Compound 13, 7-((2,6-Dimethylphenyl)sulfanyl)-5-hydroxybenzo[1,3]oxathiol-2-one], the pIC50 was less than 4.52.

For `CCSc1cc(O)cc2sc(=O)oc12` [Compound 5, 7-Ethylsulfanyl-5-hydroxybenzo[1,3]oxathiol-2-one], the negative logarithm of the IC50 (pIC50) was less than 4.52.

Consider `O=c1oc2c(-c3ccc(Cl)c(Cl)c3)cc(O)cc2s1` [Compound 43, 7-(3,4-dichlorophenyl)-5-hydroxybenzo[1,3]oxathiol-2-one], for which the pIC50 is 5.15.

Consider `COc1ccc(-c2cc(O)cc3sc(=O)oc23)cc1` [Compound 53, 5-hydroxy-7-(4-methoxyphenyl)benzo[1,3]oxathiol-2-one], for which the negative logarithm of the IC50 (pIC50) is less than 4.52.

As to `O=c1oc2ccc(O)c(Sc3nc4ccccc4s3)c2s1` [Compound 21, 4-((Benzothiazol-2-yl)sulfanyl)-5-hydroxybenzo[1,3]oxathiol-2-one], the negative logarithm of the IC50 (pIC50) is 4.30.

On to `O=c1oc2c(Sc3ccccc3C(F)(F)F)cc(O)cc2s1` [Compound 18, 5-hydroxy-7-((2-Trifluoromethylphenyl)sulfanyl)benzo[1,3]oxathiol-2-one], for which the pIC50 is less than 4.52.

As to `O=c1oc2c(-c3ccccc3Cl)cc(O)cc2s1` [Compound 36, 7-(2-chlorophenyl)-5-hydroxybenzo[1,3]oxathiol-2-one], the negative-log IC50 (pIC50) was 4.80.

In the case of `O=c1oc2c(-c3cccc(I)c3)cc(O)cc2s1` [Compound 45, 5-hydroxy-7-(3-iodophenyl)benzo[1,3]oxathiol-2-one], the pIC50 was 5.15.

Consider `O=c1oc2c3c4c(cc2s1)CCCN4CCC3` [Compound 57], for which the pIC50 was 4.30.

Take `Cc1cccc(C)c1-c1cc2oc(=O)sc2cc1O` [Compound 50, 6-(2,6-dimethylphenyl)-5-hydroxybenzo[1,3]oxathiol-2-one]: the pIC50 was 4.66.

`O=c1oc2ccc(Nc3c(Cl)cc(Br)cc3Cl)cc2s1` [Compound 58, 5-(4-bromo-2,6-dichloroanalino)benzo[1,3]oxathiol-2-one]: the pIC50 is 4.30.

Take `O=c1oc2c(-c3ccc(Cl)cc3)cc(O)cc2s1` [Compound 39, 7-(4-chlorophenyl)-5-hydroxybenzo[1,3]oxathiol-2-one]: the pIC50 is 4.52.

Regarding `CC(C)c1ccccc1Sc1cc(O)cc2sc(=O)oc12` [Compound 14, 5-hydroxy-7-((2-iso-Propylphenyl)sulfanyl)benzo[1,3]oxathiol-2-one], the pIC50 was 4.52.

As for `O=c1oc2c(-c3cc(Cl)ccc3Cl)cc(O)cc2s1` [Compound 42, 7-(2,5-dichlorophenyl)-5-hydroxybenzo[1,3]oxathiol-2-one], the negative-log IC50 (pIC50) was 4.77.

With `O=c1oc2c(-c3ccc(-c4ccccc4)cc3)cc(O)cc2s1` [Compound 54, 7-biphenyl-5-hydroxybenzo[1,3]oxathiol-2-one], the pIC50 was 4.64.

Regarding `CCNc1cc(C)cc2sc(=O)oc12` [Compound 56, 7-ethylamino-5-methylbenzo[1,3]oxathiol-2-one], the pIC50 was 4.40.

For `O=c1oc2c([S+]([O-])c3ccc4ccccc4c3)cc(O)cc2s1` (stereo not shown) [Compound 24, 5-Hydroxy-7-((2-naphthyl)sulfinyl)benzo[1,3]oxathiol-2-one], the pIC50 is less than 4.52.

`CCc1ccccc1Sc1cc(O)cc2sc(=O)oc12` [Compound 12, 7-((2-Ethylphenyl)sulfanyl)-5-hydroxybenzo[1,3]oxathiol-2-one]: the pIC50 is less than 4.52.

On to `Cc1cccc(-c2cc(OC(=O)c3ccccc3Cl)cc3sc(=O)oc23)c1` [Compound 48, 5-(2-chlorophenylcarbonyloxy)-7-(3-methylphenyl)benzo[1,3]oxathiol-2-one], for which the negative logarithm of the IC50 (pIC50) was 4.55.

The same assay, now with this note: anti-NGF antibody, 48 hours, Alamar Blue viability; read-out: IC50, rescue from anti-NGF killing of cultured SCG neurons.
On to `O=c1oc2c([S+]([O-])Cc3ccccc3)cc(O)cc2s1` (stereo not shown) [Compound 6], for which the pIC50 is less than 4.52.

The same assay, now with this note: at 10 μM compound.
For `CC(C)c1ccccc1Sc1cc2oc(=O)sc2cc1O` [Compound 15, 5-hydroxy-6-((2-iso-Propylphenyl)sulfanyl)benzo[1,3]oxathiol-2-one], the “rescue from anti-NGF killing, % at 10 μM” value is given as 40% at 10 μM.

The same assay, now with this note: at 30 μM compound.
Take `O=c1oc2c(-c3ccccc3C(F)(F)F)cc(O)cc2s1` [Compound 51, 5-hydroxy-7-(2-trifluoromethylphenyl)benzo[1,3]oxathiol-2-one]: the “rescue from anti-NGF killing, % at 30 μM” value worked out at 38% at 30 μM.

`CC(C)c1ccc(Sc2cc(O)cc3sc(=O)oc23)cc1` [Compound 16, 7-(4-iso-Propylphenylthio)-5-hydroxybenzo[1,3]oxathiol-2-one]: the “rescue from anti-NGF killing, % at 30 μM” value is 42% at 30 μM.

Regarding `O=c1oc2c(-c3ccc(F)cc3)cc(O)cc2s1` [Compound 35, 7-(4-fluorophenyl)-5-hydroxybenzo[1,3]oxathiol-2-one], the “rescue from anti-NGF killing, % at 30 μM” value is reported as 40% at 30 μM.

The assay is the same for the next values; noted with them: at 50 μM compound.
Consider `O=C(Oc1cc(-c2cccc(Cl)c2)c2oc(=O)sc2c1)c1ccccc1Cl` [Compound 38, 5-(2-chlorophenylcarbonyloxy)-7-(3-chlorophenyl)benzo[1,3]oxathiol-2-one], for which the “rescue from anti-NGF killing, % at 50 μM” value came out at 40% at 50 μM.

In the case of `CCc1cccc(CC)c1Nc1ccc2oc(=O)sc2c1` [Compound 59, 6-(2,6-diethylanalino)benzo[1,3]oxathiol-2-one], the “rescue from anti-NGF killing, % at 50 μM” value is recorded as 38% at 50 μM.

As for `Cc1cccc(C)c1-c1cc(O)cc2sc(=O)oc12` [Compound 49, 7-(2,6-dimethylphenyl)-5-hydroxybenzo[1,3]oxathiol-2-one], the “rescue from anti-NGF killing, % at 50 μM” value is reported as 40% at 50 μM.

A further assay deals with SCG neurons. The experiment in a line: In vitro protection of SCG neurons from Taxol killing. The assay is classed as cell-based, Sprague Dawley rats. The conditions noted are these: Rattus norvegicus, Neuron; Taxol 50 ng/mL, 48 hours, MTS viability; read-out: IC50, rescue from Taxol killing of SCG neurons. The source says: Taxol™ is regularly used in the treatment of breast and other cancers. Taxol™ binds to the cyto-skeletal protein tubulin, thereby inhibiting normal microtubular […] and inducing cellular apoptosis. Despite its potency as an anti-tumour agent, Taxol™ is also toxic to neurons, inducing dose limiting peripheral neuropathies. The addition of Taxol™ to cultured SCG neurons induces the degradation or loss of upwards of 80% of the neurons. The addition of selected compounds of Formula I to the cellular media, concurrently with Taxol™, protects upwards of 100% of the neurons, at drug concentrations ranging from 3 to 50 μM (see Example 63).
In Vitro Protection of SCG neurons from Taxol killing. SCG neurons were isolated from day 1 neonatal Sprague Dawley rats, plated at a cell density of 10,000 cells/well, and incubated in Biowhittaker Ultraculture containing 1% Penstrep, 1% L-glutamine, 0.7% ARAC, 3% rat serum, and NGF (50 ng/mL, Calomone Labs) at 37° C., under a 5% CO2 atmosphere. After 5 days the cells were treated with compound and Taxol™ (50 ng/mL). Viability of neurons was assessed 48 hours later using MTS (Promega) staining. Table 4 summarizes selected IC50 values from compounds tested using this protocol. Also, see FIG. 1 for compound protection against Taxol killing.
Regarding `O=c1oc2c(Cl)cc(O)c(Cl)c2s1` [Compound 3, 4,7-Dichloro-5-hydroxybenzo[1,3]oxathiol-2-one], the pIC50 is 5.00.

`O=c1oc2c(Sc3cccc4ccccc34)cc(O)cc2s1` [Compound 22, 5-Hydroxy-7-((1-naphthyl)sulfanyl)benzo[1,3]oxathiol-2-one]: the pIC50 was 5.00.

Take `COc1ccc(NC(=O)Oc2cc(Sc3ccc4ccccc4c3)c3oc(=O)sc3c2)cc1` [Compound 26, 5-(N-(4-methoxyphenyl)carbamoyloxy)-7-((2-naphthyl)sulfanyl)benzo[1,3]oxathiol-2-one]: the pIC50 was 5.15.

For `O=c1oc2ccc(O)cc2s1` [Compound 1, 5-Hydroxybenzo[1,3]oxathiol-2-one], the negative logarithm of the IC50 (pIC50) is 4.60.
